{"source": "patent US20020040053A1", "about": "“Antioxidant containing vitamin E metabolite” (priority 2000, published 2002)", "key": {"LDL": {"system": "LDL", "test": "Oxidative degeneration LDL assay using azo-compound (V-70)", "format": "biochemical, human", "conditions": "for anti-oxidative activity on LDL (lag-time): added to LDL concentration-dependently, final concentration 60-1000 ng; for lag-time (time during which conjugate diene production was inhibited): final concentration 1 μg, LDL from eight male and female adults, V-70 200 μM, about 70 μg/mL LDL protein, control 88.1±29.4 minutes", "experimental": "Blood collected from human subject was centrifuged at 3000 rpm for 10 minutes to isolate plasma. Next, KBr was added to 1.1 mL of the plasma which was then subjected to density gradient ultra-centrifugation (Single spin differential centrifugation) to collect LDL. After the determination of protein concentration, LDL was prepared by PBS.\nIn vitro assay of oxidatively denatured LDL was performed according to the method described by Kondo, et al. This method involves use of 2,2′-azobis([…]-2,4-dimethylvaleronitrile; V-70) as the oxidation starter. Final concentration of V-70 was 200 μM for about 70 μg/mL of LDL protein concentration, and production of the conjugate dienes of LDL was assayed at 234 nm for 300 minutes. The time during which conjugate diene production was inhibited was indicated as lag-time. The efficacy of each antioxidants was evaluated by adding the compound and V-70 at the same time and determining the lag-time caused by the compound."}, "[1]": {"conditions": "500IU RRR-α-tocopherol administered to human subject; cited from earlier work"}}, "data": [{"smiles": "Cc1c(O)cc2c(c1C)OC(C)(CCC(=O)O)CC2", "note": "(stereo not drawn) [γ-CEHC, 2,7,8-trimethyl-2-(β-carboxyethyl)-6-hydroxychromane]", "values": [{"measurement": "anti-oxidative activity on LDL (lag-time)", "setting": "LDL", "value": "prolonged lag-times concentration-dependently"}, {"measurement": "extension rate of lag-time (control = 1), FIG. 1", "setting": "LDL; final concentration 60 ng, close to 200 pmol/mL (lower concentration)", "value": "greater increase in extension rate of lag-time than those of α-CEHC and Trolox groups"}, {"measurement": "anti-oxidative effects on LDL, comparison between compounds", "setting": "LDL; final concentration 1 μg (higher concentration)", "value": "significantly stronger anti-oxidative effects on LDL than α-CEHC did"}, {"measurement": "lag-time (time during which conjugate diene production was inhibited)", "setting": "LDL", "value": "263.1 ± 114.8", "unit": "min"}]}, {"smiles": "Cc1c(C)c2c(c(C)c1O)CCC(C)(CCC(=O)O)O2", "note": "(stereo not drawn) [α-CEHC, 2,5,7,8-Tetramethyl-2-(β-carboxyethyl)-6-hydroxychromane]", "values": [{"measurement": "anti-oxidative activity on LDL (lag-time)", "setting": "LDL", "value": "prolonged lag-times concentration-dependently"}, {"measurement": "lag-time (time during which conjugate diene production was inhibited)", "setting": "LDL", "value": "190.8 ± 65.1", "unit": "min"}]}, {"smiles": "Cc1c(C)c2c(c(C)c1O)CC[C@@](C)(CCC[C@H](C)CCC[C@H](C)CCCC(C)C)O2", "note": "[RRR-α-tocopherol]", "values": [{"measurement": "plasma α-CEHC concentration", "setting": "[1]", "value": 200, "unit": "pmol/mL"}]}]}
